# From PubChem BioAssay AID2060890 (Molecular Pharmacology Branch, DTP, NCI, 2025)
# Test system: LG0703-F948-PDC complex spheroid viability
# Assay: Anticancer human tumor LG0703-F948-PDC patient-derived lung adenocarcinoma cell line growth inhibition [RAS]
# Conditions: for viability, T/C: stronger effect = lower value
# Method in brief: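 Multi-cell-type spheroids: tumor cells plus HUVEC endothelial cells and mesenchymal stem cells. RAS-pathway inhibitors were combined with targeted agents, each dosed in half-log steps down from clinical Cmax, or from 10 microM when Cmax was unknown.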
# [1] = curve of first compound, second compound 0.0316 µM
# [2] = curve of first compound, second compound 0.1 µM
# [3] = curve of first compound, second compound 0.316 µM
# [4] = curve of first compound, second compound 1 µM
# [5] = second compound 0.0316 µM, first compound 0.000949 µM
# [6] = second compound 0.0316 µM, first compound 0.003 µM
# [7] = second compound 0.0316 µM, first compound 0.00949 µM
# [8] = second compound 0.0316 µM, first compound 0.03 µM
# [9] = second compound 0.0316 µM, first compound 0.0949 µM
# [10] = second compound 0.0316 µM, first compound 0.3 µM
# [11] = second compound 0.1 µM, first compound 0.000949 µM
# [12] = second compound 0.1 µM, first compound 0.003 µM
# [13] = second compound 0.1 µM, first compound 0.00949 µM
# [14] = second compound 0.1 µM, first compound 0.03 µM
# [15] = second compound 0.1 µM, first compound 0.0949 µM
# [16] = second compound 0.1 µM, first compound 0.3 µM
# [17] = second compound 0.316 µM, first compound 0.000949 µM
# [18] = second compound 0.316 µM, first compound 0.003 µM
# [19] = second compound 0.316 µM, first compound 0.00949 µM
# [20] = second compound 0.316 µM, first compound 0.03 µM
# [21] = second compound 0.316 µM, first compound 0.0949 µM
# [22] = second compound 0.316 µM, first compound 0.3 µM
# [23] = second compound 1 µM, first compound 0.000949 µM
# [24] = second compound 1 µM, first compound 0.003 µM
# [25] = second compound 1 µM, first compound 0.00949 µM
# [26] = second compound 1 µM, first compound 0.03 µM
# [27] = second compound 1 µM, first compound 0.0949 µM
# [28] = second compound 1 µM, first compound 0.3 µM
# 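Also: spheroids exposed to agents for 7 days.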
# 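For viability, T/C in this document: 100% = DMSO vehicle wells.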
smiles,measurement,setting,value
CC1(C)CCC(Nc2ncc(C(F)(F)F)c(-c3c[nH]c4c(P(C)(C)=O)c(C#N)ccc34)n2)CN1 (configuration not stated) + CCn1c(-c2cccnc2C(C)OC)c2c3cc(ccc31)N1CCOC(CC(NC(=O)C(C(C)C)N(C)C(=O)C3(F)CCN(C(=O)C#CC(C)(C)N(C)C)CC3)C(=O)N3CCCC(N3)C(=O)OCC(C)(C)C2)C1,IC50,"curve of first compound, second compound 0.000949 µM",> 0.3 µM
same,IC50,"curve of first compound, second compound 0.003 µM",> 0.3 µM
same,IC50,"curve of first compound, second compound 0.00949 µM",> 0.3 µM
same,IC50,"curve of first compound, second compound 0.03 µM",> 0.3 µM
same,IC50,"curve of first compound, second compound 0.0949 µM",> 0.3 µM
same,IC50,"curve of first compound, second compound 0.3 µM",< 0.000949 µM
same,"viability, T/C","second compound 0.000949 µM, first compound 0.000949 µM",83.4%
same,"viability, T/C","second compound 0.000949 µM, first compound 0.003 µM",70.4%
same,"viability, T/C","second compound 0.000949 µM, first compound 0.00949 µM",67.1%
same,"viability, T/C","second compound 0.000949 µM, first compound 0.03 µM",60.1%
same,"viability, T/C","second compound 0.000949 µM, first compound 0.0949 µM",67.3%
same,"viability, T/C","second compound 0.000949 µM, first compound 0.3 µM",56.5%
same,"viability, T/C","second compound 0.003 µM, first compound 0.000949 µM",89.2%
same,"viability, T/C","second compound 0.003 µM, first compound 0.003 µM",84.9%
same,"viability, T/C","second compound 0.003 µM, first compound 0.00949 µM",58.1%
same,"viability, T/C","second compound 0.003 µM, first compound 0.03 µM",62.2%
same,"viability, T/C","second compound 0.003 µM, first compound 0.0949 µM",61.5%
same,"viability, T/C","second compound 0.003 µM, first compound 0.3 µM",68.7%
same,"viability, T/C","second compound 0.00949 µM, first compound 0.000949 µM",75%
same,"viability, T/C","second compound 0.00949 µM, first compound 0.003 µM",72.7%
same,"viability, T/C","second compound 0.00949 µM, first compound 0.00949 µM",77.8%
same,"viability, T/C","second compound 0.00949 µM, first compound 0.03 µM",57.7%
same,"viability, T/C","second compound 0.00949 µM, first compound 0.0949 µM",64.8%
same,"viability, T/C","second compound 0.00949 µM, first compound 0.3 µM",67.2%
same,"viability, T/C","second compound 0.03 µM, first compound 0.000949 µM",86.5%
same,"viability, T/C","second compound 0.03 µM, first compound 0.003 µM",79.5%
same,"viability, T/C","second compound 0.03 µM, first compound 0.00949 µM",62.6%
same,"viability, T/C","second compound 0.03 µM, first compound 0.03 µM",66.1%
same,"viability, T/C","second compound 0.03 µM, first compound 0.0949 µM",59.4%
same,"viability, T/C","second compound 0.03 µM, first compound 0.3 µM",60.4%
same,"viability, T/C","second compound 0.0949 µM, first compound 0.000949 µM",82.9%
same,"viability, T/C","second compound 0.0949 µM, first compound 0.003 µM",68.2%
same,"viability, T/C","second compound 0.0949 µM, first compound 0.00949 µM",65%
same,"viability, T/C","second compound 0.0949 µM, first compound 0.03 µM",55%
same,"viability, T/C","second compound 0.0949 µM, first compound 0.0949 µM",65.7%
same,"viability, T/C","second compound 0.0949 µM, first compound 0.3 µM",63.7%
same,"viability, T/C","second compound 0.3 µM, first compound 0.000949 µM",39.1%
same,"viability, T/C","second compound 0.3 µM, first compound 0.003 µM",49.9%
same,"viability, T/C","second compound 0.3 µM, first compound 0.00949 µM",48.5%
same,"viability, T/C","second compound 0.3 µM, first compound 0.03 µM",46.1%
same,"viability, T/C","second compound 0.3 µM, first compound 0.0949 µM",48.8%
same,"viability, T/C","second compound 0.3 µM, first compound 0.3 µM",46.2%
CC(C)NCC(C(=O)N1CCN(c2ncnc3c2C(C)CC3O)CC1)c1ccc(Cl)cc1 (configuration not stated),"viability, T/C",compound 0.1 µM,90.6% [middle of 4 runs]
same,"viability, T/C",compound 0.316 µM,70.8% [middle of 4 runs]
same,"viability, T/C",compound 1 µM,48% [middle of 4 runs]
same,"viability, T/C",compound 3.16 µM,40.3% [middle of 4 runs]
same,"viability, T/C",compound 10 µM,32.6% [middle of 4 runs]
same,IC50,curve of compound,946 nM [middle of 4 runs]
CCc1c2c(nc3ccc(O)cc13)-c1cc3c(c(=O)n1C2)COC(=O)[C@]3(O)CC + C=CC(=O)N1CCN(c2nc(OCC3CCCN3C)nc3c(F)c(-c4nc(N)cc(C)c4C(F)(F)F)c(Cl)cc23)C(C)C1,IC50,"curve of first compound, second compound 0.00316 µM",0.0418 µM
same,IC50,"curve of first compound, second compound 0.01 µM",0.0513 µM
same,IC50,[1],0.0376 µM
same,IC50,[2],0.0305 µM
same,IC50,[3],0.0444 µM
same,IC50,[4],0.0508 µM
same,"viability, T/C","second compound 0.00316 µM, first compound 0.000949 µM",102%
same,"viability, T/C","second compound 0.00316 µM, first compound 0.003 µM",99.9%
same,"viability, T/C","second compound 0.00316 µM, first compound 0.00949 µM",77.8%
same,"viability, T/C","second compound 0.00316 µM, first compound 0.03 µM",54.5%
same,"viability, T/C","second compound 0.00316 µM, first compound 0.0949 µM",38.3%
same,"viability, T/C","second compound 0.00316 µM, first compound 0.3 µM",22.9%
same,"viability, T/C","second compound 0.01 µM, first compound 0.000949 µM",105%
same,"viability, T/C","second compound 0.01 µM, first compound 0.003 µM",87.5%
same,"viability, T/C","second compound 0.01 µM, first compound 0.00949 µM",80.7%
same,"viability, T/C","second compound 0.01 µM, first compound 0.03 µM",61.3%
same,"viability, T/C","second compound 0.01 µM, first compound 0.0949 µM",36.4%
same,"viability, T/C","second compound 0.01 µM, first compound 0.3 µM",20.7%
same,"viability, T/C",[5],102%
same,"viability, T/C",[6],106%
same,"viability, T/C",[7],92.1%
same,"viability, T/C",[8],53%
same,"viability, T/C",[9],34%
same,"viability, T/C",[10],21%
same,"viability, T/C",[11],97.8%
same,"viability, T/C",[12],103%
same,"viability, T/C",[13],63.4%
same,"viability, T/C",[14],53.1%
same,"viability, T/C",[15],35.8%
same,"viability, T/C",[16],21.2%
same,"viability, T/C",[17],104%
same,"viability, T/C",[18],103%
same,"viability, T/C",[19],83.6%
same,"viability, T/C",[20],58.8%
same,"viability, T/C",[21],34.4%
same,"viability, T/C",[22],24.3%
same,"viability, T/C",[23],106%
same,"viability, T/C",[24],98.8%
same,"viability, T/C",[25],91%
same,"viability, T/C",[26],57.3%
same,"viability, T/C",[27],39.8%
same,"viability, T/C",[28],20.1%
CC1(C)CCC(Nc2ncc(C(F)(F)F)c(-c3c[nH]c4c(P(C)(C)=O)c(C#N)ccc34)n2)CN1 (configuration not stated) + C#Cc1c(F)ccc2cc(O)cc(-c3ncc4c(N5CC6CCC(C5)N6)nc(OCC56CCCN5CC(F)C6)nc4c3F)c12,IC50,[1],> 0.3 µM
same,IC50,[2],> 0.3 µM
same,IC50,[3],> 0.3 µM
same,IC50,[4],> 0.3 µM
same,IC50,"curve of first compound, second compound 3.16 µM",> 0.3 µM
same,IC50,"curve of first compound, second compound 10 µM",0.00326 µM
same,"viability, T/C",[5],83.1%
same,"viability, T/C",[6],65.2%
same,"viability, T/C",[7],61.7%
same,"viability, T/C",[8],55.8%
same,"viability, T/C",[9],63.3%
same,"viability, T/C",[10],67.2%
same,"viability, T/C",[11],93%
same,"viability, T/C",[12],80.7%
same,"viability, T/C",[13],63.9%
same,"viability, T/C",[14],69.5%
same,"viability, T/C",[15],76.9%
same,"viability, T/C",[16],66.3%
same,"viability, T/C",[17],85.6%
same,"viability, T/C",[18],58.7%
same,"viability, T/C",[19],62.5%
same,"viability, T/C",[20],67.5%
same,"viability, T/C",[21],66%
same,"viability, T/C",[22],71.2%
same,"viability, T/C",[23],62.3%
same,"viability, T/C",[24],76.4%
same,"viability, T/C",[25],62.5%
same,"viability, T/C",[26],59.5%
same,"viability, T/C",[27],68.9%
same,"viability, T/C",[28],66.4%
same,"viability, T/C","second compound 3.16 µM, first compound 0.000949 µM",65.7%
same,"viability, T/C","second compound 3.16 µM, first compound 0.003 µM",57.5%
same,"viability, T/C","second compound 3.16 µM, first compound 0.00949 µM",45.1%
same,"viability, T/C","second compound 3.16 µM, first compound 0.03 µM",53%
same,"viability, T/C","second compound 3.16 µM, first compound 0.0949 µM",63.9%
same,"viability, T/C","second compound 3.16 µM, first compound 0.3 µM",54.4%
same,"viability, T/C","second compound 10 µM, first compound 0.000949 µM",58.3%
same,"viability, T/C","second compound 10 µM, first compound 0.003 µM",48.9%
same,"viability, T/C","second compound 10 µM, first compound 0.00949 µM",37.6%
same,"viability, T/C","second compound 10 µM, first compound 0.03 µM",47.7%
same,"viability, T/C","second compound 10 µM, first compound 0.0949 µM",50.3%
same,"viability, T/C","second compound 10 µM, first compound 0.3 µM",44.4%
